Reference: patent US11130741B2 (Bioimics AB, priority 2016, dated 2021)
Converted amounts (≈) assume the structure as drawn. Counter-ions that a name gives are not always drawn. Like-named read-outs stand apart in the source and are kept apart here.

Columns and labels:
[1] = test system: E. coli RNase P RNA, M1 RNA; assay: Inhibition of bacterial RNase P activity, IC50 determination (cleavage of pATSerUG by M1 RNA); format: biochemical; conditions: NI = No inhibition
[2] = test system: Staphylococcus aureus subsp. aureus (ATCC29213); assay: MIC, broth microdilution (CLSI), Staphylococcus aureus subsp. aureus ATCC29213; format: cell-based; conditions: ATCC29213, Table 15, read-out: S. aureus ("wound") (MIC)
[3] = test system: Escherichia coli (ATCC25922); assay: MIC, broth microdilution (CLSI), Escherichia coli ATCC25922
[4] = test system: Staphylococcus aureus (ATCC25923); assay: MIC, broth microdilution (CLSI), Staphylococcus aureus ATCC25923
[5] = ATCC25922, read-out: E. coli MIC, Table 15, NI = No inhibition
[6] = ATCC25923, read-out: S. aureus ("Clinical") MIC

SMILES	IC50 [1] [µM]	MIC [3, 5] [µg/mL]	MIC [4, 6] [µg/mL]	MIC [2] [µg/mL]	IC50 ([1]; trifluoroacetate) [µM]	MIC ([3]; ATCC25922, read-out: E. coli MIC) [µg/mL]	MIC ([4]; ATCC25923, read-out: S. aureus ("Clinical") MIC, Table 15) [µg/mL]
CN(C)CCCN1c2ccc(-c3cc4ccccc4[nH]3)cc2Sc2cccnc21 [compound 135, 3-(7-(1H-Indol-2-yl)-10H-benzo[b]pyrido[2,3-e][1,4]thiazin-10-yl)-N,N-dimethylpropan-1-amine]	24 to 32	> 100	6 (≈ 15 µM)	8 (≈ 20 µM)	–	–	–
NC1CCCC(C(=O)Nc2cc(C(F)(F)F)cc3nc4ccccc4nc23)C1 (stereo not shown) [compound 211, 3-amino-N-(3-(trifluoromethyl)phenazin-1-yl) cyclohexane-carboxamide]	258	–	25 (≈ 64.4 µM)	211 (≈ 543 µM)	–	–	–
NCCN1CCC(C(=O)Nc2cc(C(F)(F)F)cc3c2Nc2ccccc2S3)CC1 [compound 155, trifluoroacetate]	–	–	–	–	53	35	35
COc1cc(-c2ccc3c(c2)Sc2ccccc2N3CCCN(C)C)ccn1 [compound 153, 3-(3-(2-methoxypyridin-4-yl)-10H-phenothiazin-10-yl)-N,N-dimethylpropan-1-amine]	> 100	> 100	25 (≈ 63.9 µM)	–	–	–	–
NCCN(CCN)CCN1CCC(Nc2cc(C(F)(F)F)cc3c2Nc2ccccc2S3)CC1 [compound 234, N1-(2-aminoethyl)-N1-(2-(4-((3-(trifluoromethyl)-10H-phenothiazin-1-yl)amino)piperidin-1-yl)ethyl)ethane-1,2-diamine]	–	8 (≈ 16.2 µM)	4 (≈ 8.09 µM)	8 (≈ 16.2 µM)	–	–	–
CN(C)CCCN1c2ccccc2Sc2cc(Cl)cc(N)c21 [compound 89, 3-chloro-10-(3-(dimethylamino)propyl)-10H-phenothiazin-1-amine]	> 100	> 100	85 (≈ 255 µM)	–	–	–	–
NCCN(CCN)CCN1CCC(Nc2cc(C(F)(F)F)cc3c2Nc2ccccc2S3)CC1.O=C(O)C(F)(F)F [compound 216, N1-(2-aminoethyl)-N1-(2-(4-((3-(trifluoromethyl)-10H-phenothiazin-1-yl)amino)piperidin-1-yl)ethyl)ethane-1,2-diamine 2,2,2-trifluoroacetate salt]	5	19	5	–	–	–	–
N#Cc1cc(NC2CCN(CCN)CC2)c2c(c1)Sc1ccccc1N2 [compound 215, 1-((1-(2-aminoethyl)piperidin-4-yl)amino)-10H-phenothiazine-3-carbonitrile]	> 100	47 (≈ 129 µM)	23 (≈ 62.9 µM)	–	–	–	–
CN(C)CCCN1c2ccccc2Sc2cc(-c3cccc4cn[nH]c34)ccc21 [compound 129, 3-(3-(1H-indazol-7-yl)-10H-phenothiazin-10-yl)-N,N-dimethylpropan-1-amine]	> 100	> 100	6 (≈ 15 µM)	–	–	–	–
CN1CCN(CCCN2c3ccccc3Sc3cc(C(F)(F)F)cc(N)c32)CC1 [compound 88, 10-(3-(4-methylpiperazin-1-yl)propyl)-3-(trifluoromethyl)-10H-phenothiazin-1-amine]	> 100	> 100	27 (≈ 63.9 µM)	–	–	–	–
NNC(=O)c1cc(NC2CCNCC2)c2c(c1)Sc1ccccc1N2.O=C(O)C(F)(F)F [compound 210, 1-(piperidin-4-ylamino)-10H-phenothiazine-3-carbohydrazide 2,2,2-trifluoroacetate salt]	95	> 100	60	–	–	–	–
NCCCN1c2ccccc2Sc2cc(-c3cc4ccccc4n3CCN)ccc21.O=C(O)C(F)(F)F.O=C(O)C(F)(F)F [compound 222, 3-(3-(1-(2-aminoethyl)-1H-indol-2-yl)-10H-phenothiazin-10-yl)propan-1-amine bis(2,2,2-trifluoroacetate) salt]	18	5	3	–	–	–	–
CN(C)CCCN1c2ccccc2Sc2cc(C3CC3)ccc21 [compound 116, 3-(3-cyclopropyl-10H-phenothiazin-10-yl)-N,N-dimethylpropan-1-amine]	> 100	> 100	42 (≈ 129 µM)	–	–	–	–
CN(C)CCCN1c2ccccc2Sc2cc(-c3ccccc3)ccc21 [compound 110, N,N-dimethyl-3-(3-phenyl-10H-phenothiazin-10-yl)propan-1-amine]	> 100	> 100	6 (≈ 16.6 µM)	–	–	–	–
CN(C)CCCN1c2ccccc2Sc2cc(-c3ccc4scnc4c3)ccc21 [compound 130, 3-(3-(benzo[d]thiazol-5-yl)-10H-phenothiazin-10-yl)-N,N-dimethylpropan-1-amine]	57	> 100	7 (≈ 16.8 µM)	–	–	–	–

Further lines, with some results ahead:

IC50 [1] [µM]	MIC [3, 5] [µg/mL]	MIC [4, 6] [µg/mL]	SMILES	MIC [2] [µg/mL]	IC50 ([1]; trifluoroacetate) [µM]	MIC ([3]; ATCC25922, read-out: E. coli MIC) [µg/mL]	MIC ([4]; ATCC25923, read-out: S. aureus ("Clinical") MIC, Table 15) [µg/mL]
4	14 (≈ 32.1 µM)	14 (≈ 32.1 µM)	NCCN1CCCC(C(=O)Nc2cc(C(F)(F)F)cc3c2Nc2ccccc2S3)C1 (stereo not shown) [compound 203]	–	–	–	–
> 100	23 (≈ 62.9 µM)	12 (≈ 32.8 µM)	O=C(Nc1cc(C(F)(F)F)cc2c1Nc1ccccc1S2)C1CNC1 [compound 188, N-(3-(trifluoromethyl)-10H-phenothiazin-1-yl)azetidine-3-carboxamide]	–	–	–	–
94	64 (≈ 157 µM)	32 (≈ 78.5 µM)	NC1CCC(C(=O)Nc2cc(C(F)(F)F)cc3c2Nc2ccccc2S3)CC1 (stereo not shown) [compound 95, 4-amino-N-(3-(trifluoromethyl)-10H-phenothiazin-1-yl)cyclohexane-carboxamide]	–	–	–	–
82	26 (≈ 63.8 µM)	3 (≈ 7.36 µM)	CC(Nc1cc(C(F)(F)F)cc2c1Nc1ccccc1S2)C1CCCC(N)C1 (stereo not shown) [compound 190, N-(1-(3-aminocyclohexyl)ethyl)-3-(trifluoromethyl)-10H-phenothiazin-1-amine]	–	–	–	–
23	14 (≈ 31.6 µM)	4 (≈ 9.03 µM)	NCCN1CCC(Nc2cc(C(F)(F)F)cc3c2Nc2ccc(Cl)cc2S3)CC1 [compound 226, N-(1-(2-Aminoethyl)piperidin-4-yl)-7-chloro-3-(trifluoromethyl)-10H-phenothiazin-1-amine]	–	–	–	–
68	7 (≈ 16.6 µM)	7 (≈ 16.6 µM)	CN1c2ccccc2Sc2cc(C(F)(F)F)cc(NC3CCN(CCN)CC3)c21 [compound 218, N-(1-(2-aminoethyl)piperidin-4-yl)-10-methyl-3-(trifluoromethyl)-10H-phenothiazin-1-amine]	–	–	–	–
87	14 (≈ 36.9 µM)	7 (≈ 18.4 µM)	NC1CCC(Nc2cc(C(F)(F)F)cc3c2Nc2ccccc2S3)CC1 (stereo not shown) [compound 180, N1-(3-(trifluoromethyl)-10H-phenothiazin-1-yl)cyclohexane-1,4-diamine]	–	–	–	–
50	11 (≈ 31.3 µM)	3 (≈ 8.54 µM)	FC(F)(F)c1cc(NC2CCNC2)c2c(c1)Sc1ccccc1N2 (stereo not shown) [compound 174, N-(pyrrolidin-3-yl)-3-(trifluoromethyl)-10H-phenothiazin-1-amine]	–	–	–	–
53	52 (≈ 128 µM)	3 (≈ 7.36 µM)	NCC1CCC(CNc2cc(C(F)(F)F)cc3c2Nc2ccccc2S3)CC1 (stereo not shown) [compound 158, N-((4-(aminomethyl)cyclohexyl)methyl)-3-(trifluoromethyl)-10H-phenothiazin-1-amine]	–	–	–	–
> 100	> 100	93 (≈ 255 µM)	N#Cc1cc(NC(=O)C2CCCC(N)C2)c2c(c1)Sc1ccccc1N2 (stereo not shown) [compound 119, 3-amino-N-(3-cyano-10H-phenothiazin-1-yl)cyclohexane-carboxamide]	–	–	–	–
> 100	52 (≈ 128 µM)	3 (≈ 7.36 µM)	NC[C@H]1CCC[C@H](CNc2cc(C(F)(F)F)cc3c2Nc2ccccc2S3)C1 [compound 189, N-(((1S,3S)-3-(aminomethyl)cyclohexyl)methyl)-3-(trifluoromethyl)-10H-phenothiazin-1-amine]	–	–	–	–
> 100	> 100	12 (≈ 31.5 µM)	FC(F)(F)c1cc(NC[C@@H]2COCCN2)c2c(c1)Sc1ccccc1N2 [compound 159, (R)-N-(morpholin-3-ylmethyl)-3-(trifluoromethyl)-10H-phenothiazin-1-amine]	–	–	–	–
60	52 (≈ 128 µM)	26 (≈ 64.1 µM)	NC[C@H]1CC[C@H](C(=O)Nc2cc(C(F)(F)F)cc3c2Nc2ccccc2O3)CC1 [compound 160, (1r,4r)-4-(aminomethyl)-N-(3-(trifluoromethyl)-10H-phenoxazin-1-yl)cyclohexane-carboxamide]	–	–	–	–
> 100	> 100	7 (≈ 15.3 µM)	O=C(CC1(O)CCC(F)(F)CC1)Nc1cc(C(F)(F)F)cc2c1Nc1ccccc1S2 [compound 115, 2-(4,4-difluoro-1-hydroxycyclo-hexyl)-N-(3-(trifluoromethyl)-10H-phenothiazin-1-yl)acetamide]	–	–	–	–
> 100	27 (≈ 64.1 µM)	13 (≈ 30.8 µM)	NC1CCCC(CC(=O)Nc2cc(C(F)(F)F)cc3c2Nc2ccccc2S3)C1 (stereo not shown) [compound 167, 2-(3-aminocyclohexyl)-N-(3-(trifluoromethyl)-10H-phenothiazin-1-yl)acetamide]	–	–	–	–
258	24 (≈ 63.1 µM)	12 (≈ 31.5 µM)	NCCN1CC(Nc2cc(C(F)(F)F)cc3c2Nc2ccccc2S3)C1 [compound 208, N-(1-(2-aminoethyl)azetidin-3-yl)-3-(trifluoromethyl)-10H-phenothiazin-1-amine]	–	–	–	–
19	50 (≈ 128 µM)	6 (≈ 15.4 µM)	NC1CCCC(c2nc3cc(C(F)(F)F)cc4c3n2-c2ccccc2S4)C1 (stereo not shown) [compound 191, 3-(4-(trifluoromethyl)imidazo[4,5,1-kl]phenothiazin-1-yl)cyclohexan-amine]	–	–	–	–
> 100	7 (≈ 16.6 µM)	3 (≈ 7.1 µM)	NCCN1CCCC(Nc2cc(C(F)(F)F)cc3c2Nc2ccccc2S3)CC1 (stereo not shown) [compound 225, N-(1-(2-aminoethyl)azepan-4-yl)-3-(trifluoromethyl)-10H-phenothiazin-1-amine]	–	–	–	–
